Tests used:
Assay type in all cases: in vivo, mouse
Fmr1 KO1 mice [1] = experiment: Open field repetitive behavior: counter revolutions (CCW), Fmr1 KO1 mice
Description: (§1) Mutant fmr1 knockout (KO) mice recapitulate the Fragile X syndrome (FXS) phenotype and represent a preclinical model for assessment of putative drug treatments. In this study three different mice models of FXS were used: Fmr1 KO1 is the original Fmr1 knockout animal that carries an insertion in exon 5. See, e.g., Bakker C E, et al., The Dutch-Belgian Fragile X Consortium, Fmr1 knockout mice: A model to study fragile X mental retardation. Cell. 1994; 78:23-33 It is a protein null, although Fmr1 mRNA is still present. It is backcrossed to the C57/B16 strain. Subsequently, these mice were bred into different background strains, such as the FVB inbred mouse strain. Fmr1 KO2 is a null allele at Fmr1 generated by deletion of the promoter and first exon of Fmr1. See, Mientjes, E J et al., The generation of a conditional Fmr1 knock out mouse model to study Fmrp function in vivo. Neurobiology of Disease (2006) 21(3): 549-555. It is both protein and mRNA null. Backcrossed to the C57/B16 strain. Genotyping was accomplished using TransnetXY Automated Genotyping (http://www.transnetyx.com/). TRANSNETYX, INC., 8110 Cordova Rd. Suite 119, Cordova, TN 38016, USA.
(§2) The mice were housed in plastic cages (35×30×12 cm), 5 in each and habituated to the animal facilities for at least a week before test. The room temperature (21±2° C.), relative humidity (55±5%), a 12-h light-dark cycle (lights on 7 a.m.-7 p.m.) and air exchange (16 times per h) were automatically controlled. The animals had free access to commercial food pellets and water. Testing was conducted during the light phase. Testing was conducted on Fmr1 knockout mice and their wild-type (WT) littermates. Ten mice per treatment group, 14 weeks of age, were used for behavioral experiments. Experiments were conducted in line with the requirements of the UK Animals (Scientific Procedures) Act, 1986.
(§3) Oral dosing was performed by using 1.5-in. curved, 20-gauge, stainless steel feeding needles with a 2.25-mm ball (Braintree Scientific, Braintree, MA). Each gavage treatment was given in 0.5% methyl cellulose (Methyl Cellulose M0512, Sigma-Aldrich, St Louis, MO) used as vehicle with or without treatment compounds. The same veterinarian, blinded to the treatment groups, performed the procedure, and documented animal reactions to oral gavage. Reactions considered to indicate stress were defined as excessive struggling during gavage or abnormal behavior after gavage (labored breathing, frozen stance, exaggerated jumping, shuddering, and hunched posture).
(§4) For experiments all mice were tested once in the same apparatus. Prior to testing, mice not in the study were placed in the apparatus for some minutes before the experiment. The apparatus was then cleaned with moist and dry tissues before testing each mouse. The aim was to create a low but constant background mouse odor for all experimental subjects. All experiments were conducted with the experimenters blind to genotype and drug treatment during all testing and data analysis. Separate investigators prepared and coded dosing solutions, allocated the mice to the study treatment groups, dosed the animals, and collected the behavioral data. Data were analyzed by one-way analysis of variance (ANOVA) followed by post-hoc comparisons where appropriate using Tukey's Multiple Comparison Test. Data are represented as the mean and standard error of the mean (SEM).
(§5) 2. Open Field Repetitive Behaviors (RB) (stereotypies: anticlockwise circling and self grooming). Fmr1 KO1 mice display the autism-like phenotypes of repetitive behaviors like counter revolutions (CCW), self grooming and stereotypy that typically involves behaviors such as head bobbing. […]

Fmr1 KO2 mice [2] = experiment: Hyponeophagia (anxiety, latency to eat), Fmr1 KO2 mice
Description: as §1, §2, §3, §4
4. Hyponeophagia (inhibition of feeding) is used as a measure of anxiety which can be produced by a novel environment, particularly in rodents. […]

Fmr1 KO2 mice [3] = experiment: Open field repetitive behavior: stereotypy count, Fmr1 KO2 mice
Description: as §1, §2, §3, §4
2. Open Field Repetitive Behaviors (stereotypies: anticlockwise circling (aka counter revolutions) (CCW) and self grooming). Fmr1 KO2 mice display the autism-like phenotypes of repetitive behaviors like CCW, self grooming and stereotypy that typically involves behaviors such as head bobbing.
C. […]

Fmr1 KO2 mice [4] = experiment: Open field hyperactivity (locomotor activity), Fmr1 KO2 mice
Description: as §1, §2, §3, §4
1. […]

Fmr1 KO1 mice [5] = experiment: Open field repetitive behavior: stereotypy count, Fmr1 KO1 mice
Description: as §1, §2, §3, §4
2. Open Field Repetitive Behaviors (RB) (stereotypies: anticlockwise circling and self grooming). Fmr1 KO1 mice display the autism-like phenotypes of repetitive behaviors like counter revolutions (CCW), self grooming and stereotypy that typically involves behaviors such as head bobbing.
C. […]

Fmr1 KO1 mice [6] = experiment: Open field hyperactivity (locomotor activity), Fmr1 KO1 mice
Description: as §1, §2, §3, §4
1. […]

Fmr1 KO1 mice [7] = experiment: Open field repetitive behavior: self grooming, Fmr1 KO1 mice
Description: as §1, §2, §3, §4, §5

**Q.** Which results are given for `N[C@H]1C=C(C(=O)O)CC1=C(F)F` [Compound, (S)-3-Amino-4-(difluoromethylenyl)cyclopent-1-ene-1-carboxylic acid]?
**A.** Open field counter revolutions (CCW), WT-Veh vs. KO1-Compound: Significant? (Fmr1 KO1 mice [1]; 0.01 mg/Kg PO QD seven days): Yes; Open field counter revolutions (CCW), WT-Veh vs. KO1-Compound: Significant? (Fmr1 KO1 mice [1]; 0.05 mg/Kg PO QD seven days): No; Open field counter revolutions (CCW), WT-Veh vs. KO1-Compound: Summary (Fmr1 KO1 mice [1]; 0.05 mg/Kg PO QD seven days): ns; Open field counter revolutions (CCW), WT-Veh vs. KO1-Compound: Significant? (Fmr1 KO1 mice [1]; 0.1 mg/Kg PO QD seven days): No; Open field counter revolutions (CCW), WT-Veh vs. KO1-Compound: Summary (Fmr1 KO1 mice [1]; 0.1 mg/Kg PO QD seven days): ns; Effect on CCW repetitive behavior (FIG. 8) (Fmr1 KO1 mice [1]; 0.05 and 0.1 mg/Kg): reversed CCW repetitive behavior; Hyponeophagia (latency to eat), WT-Veh vs. KO2-Compound: Significant? (Fmr1 KO2 mice [2]; 0.01 mg/Kg PO QD seven days): Yes; Hyponeophagia (latency to eat), WT-Veh vs. KO2-Compound: Significant? (Fmr1 KO2 mice [2]; 0.05 mg/Kg PO QD seven days): No; Hyponeophagia (latency to eat), WT-Veh vs. KO2-Compound: Summary (Fmr1 KO2 mice [2]; 0.05 mg/Kg PO QD seven days): ns; Hyponeophagia (latency to eat), WT-Veh vs. KO2-Compound: Significant? (Fmr1 KO2 mice [2]; 0.1 mg/Kg PO QD seven days): No; Hyponeophagia (latency to eat), WT-Veh vs. KO2-Compound: Summary (Fmr1 KO2 mice [2]; 0.1 mg/Kg PO QD seven days): ns; Effect on latency to eat in hyponeophagia test (FIG. 6) (Fmr1 KO2 mice [2]; 0.05 and 0.1 mg/Kg): decreasing their latency to eat to virtually control levels; Stereotypy count, WT-Veh vs. KO2-Compound: Significant? (Fmr1 KO2 mice [3]; 0.01 mg/Kg PO QD seven days): Yes; Stereotypy count, WT-Veh vs. KO2-Compound: Significant? (Fmr1 KO2 mice [3]; 0.05 mg/Kg PO QD seven days): No; Stereotypy count, WT-Veh vs. KO2-Compound: Summary (Fmr1 KO2 mice [3]; 0.05 mg/Kg PO QD seven days): ns; Stereotypy count, WT-Veh vs. KO2-Compound: Significant? (Fmr1 KO2 mice [3]; 0.1 mg/Kg PO QD seven days): No; Stereotypy count, WT-Veh vs. KO2-Compound: Summary (Fmr1 KO2 mice [3]; 0.1 mg/Kg PO QD seven days): ns; Effect on stereotypy counts phenotype (FIG. 4) (Fmr1 KO2 mice [3]; 0.05 and 0.1 mg/Kg): reversed; Open field locomotor activity (total distance traveled), WT-Veh vs. KO2-Compound: Significant? (Fmr1 KO2 mice [4]; 0.01 mg/Kg PO QD seven days): Yes; Open field locomotor activity (total distance traveled), WT-Veh vs. KO2-Compound: Significant? (Fmr1 KO2 mice [4]; 0.05 mg/Kg PO QD seven days): Yes; Open field locomotor activity (total distance traveled), WT-Veh vs. KO2-Compound: Significant? (Fmr1 KO2 mice [4]; 0.1 mg/Kg PO QD seven days): No; Open field locomotor activity (total distance traveled), WT-Veh vs. KO2-Compound: Summary (Fmr1 KO2 mice [4]; 0.1 mg/Kg PO QD seven days): ns; Stereotypy count, WT-Veh vs. KO1-Compound: Significant? (Fmr1 KO1 mice [5]; 0.01 mg/Kg PO QD seven days): Yes; Stereotypy count, WT-Veh vs. KO1-Compound: Significant? (Fmr1 KO1 mice [5]; 0.05 mg/Kg PO QD seven days): No; Stereotypy count, WT-Veh vs. KO1-Compound: Summary (Fmr1 KO1 mice [5]; 0.05 mg/Kg PO QD seven days): ns; Stereotypy count, WT-Veh vs. KO1-Compound: Significant? (Fmr1 KO1 mice [5]; 0.1 mg/Kg PO QD seven days): No; Stereotypy count, WT-Veh vs. KO1-Compound: Summary (Fmr1 KO1 mice [5]; 0.1 mg/Kg PO QD seven days): ns; Effect on repetitive behaviors (stereotypical movements, FIG. 10) (Fmr1 KO1 mice [5]; 0.05 and 0.1 mg/Kg): decreased; Open field (hyperactivity, total distance traveled), WT-Veh vs. KO1-Compound: Significant? (Fmr1 KO1 mice [6]; 0.01 mg/Kg PO QD seven days): Yes; Open field (hyperactivity, total distance traveled), WT-Veh vs. KO1-Compound: Significant? (Fmr1 KO1 mice [6]; 0.05 mg/Kg PO QD seven days): Yes; Open field (hyperactivity, total distance traveled), WT-Veh vs. KO1-Compound: Significant? (Fmr1 KO1 mice [6]; 0.1 mg/Kg PO QD seven days): No; Open field (hyperactivity, total distance traveled), WT-Veh vs. KO1-Compound: Summary (Fmr1 KO1 mice [6]; 0.1 mg/Kg PO QD seven days): ns; Self grooming (time spent grooming), WT-Veh vs. KO1-Compound: Significant? (Fmr1 KO1 mice [7]; 0.01 mg/Kg PO QD seven days): Yes; Self grooming (time spent grooming), WT-Veh vs. KO1-Compound: Significant? (Fmr1 KO1 mice [7]; 0.05 mg/Kg PO QD seven days): No; Self grooming (time spent grooming), WT-Veh vs. KO1-Compound: Summary (Fmr1 KO1 mice [7]; 0.05 mg/Kg PO QD seven days): ns; Self grooming (time spent grooming), WT-Veh vs. KO1-Compound: Significant? (Fmr1 KO1 mice [7]; 0.1 mg/Kg PO QD seven days): No; Self grooming (time spent grooming), WT-Veh vs. KO1-Compound: Summary (Fmr1 KO1 mice [7]; 0.1 mg/Kg PO QD seven days): ns; Time self-grooming compared with WT+veh (FIG. 9) (Fmr1 KO1 mice [7]; 0.05 and 0.1 mg/Kg): did not differ from WT+veh

Source: patent US12285397B2, “Use of (s)-3-amino-4-(difluoromethylenyl) cyclopent-1-ene-1-carboxylic acid and related compounds, (1S,3S)-3-amino-4-(difluoromethylidene) cyclopentane-1-carboxylic acid and vigabatrin in the treatment of developmental disorders” (Ovid Therapeutics Inc., priority 2018, dated 2025)
